Reference: paper PMC11855827, “High-Throughput Screening of Five Compound Libraries for Anthelmintic Activity and Toxicity Leads to the Discovery of Two Flavonoid Compounds” (International Journal of Molecular Sciences, 2025)
“And” between values parts separate entries of the source, which are not always exact repeats. Equal values may be shown once.

System: C. elegans
Details: for Percentage of motility inhibition 0 h / Percentage of motility inhibition 24 h: Table S2, C. elegans SS assay, 110 μM, averages of 4 data points

Compound	Percentage of motility inhibition 0 h	Percentage of motility inhibition 24 h [%]	Inhibition (%) 110 μM (0 h) [%]	Inhibition (%) 110 μM (24 h) [%]
Phillyrin	0%	0	–	–
COc1ccc(-c2oc3c4c(cc(O)c3c(=O)c2O)OC(C)(C)CC4)cc1 [β‐Anhydroicaritin]	5%	16	–	–
CC(C)=CCC[C@](C)(O[C@@H]1O[C@H](CO[C@@H]2OC[C@@H](O)[C@H](O)[C@H]2O)[C@@H](O)[C@H](O)[C@H]1O)[C@H]1CC[C@]2(C)[C@@H]1[C@H](O)C[C@@H]1[C@@]3(C)CC[C@H](O[C@@H]4O[C@H](CO)[C@@H](O)[C@H](O)[C@H]4O[C@@H]4O[C@H](CO)[C@@H](O)[C@H](O)[C@H]4O[C@@H]4OC[C@@H](O)[C@H](O)[C@H]4O)C(C)(C)[C@@H]3CC[C@]12C [Notoginsenoside Fc]	0%	0	–	–
O=C(O[C@H]1[C@H](Oc2c(-c3ccc(O)c(O)c3)oc3cc(O)cc(O)c3c2=O)O[C@H](CO)[C@H](O)[C@@H]1O)c1cc(O)c(O)c(O)c1 [2"‐O‐Galloylhyperin]	32%	1	–	–
CC(=O)O[C@@H]1C[C@@]23C[C@@]24CC[C@H](O[C@@H]2OC[C@H](O)[C@H](O)[C@H]2O)C(C)(C)[C@@H]4CC[C@H]3[C@]2(C)[C@@H](O)[C@]34O[C@H](C[C@@H](C)[C@@H]3[C@@]12C)[C@@H](C(C)(C)O)O4 [Cimiracemoside D]	0%	0	–	–
Inulin	4%	17	–	–
CC(C)(CO)[C@@H](O)C(=O)NCCC(=O)[O-].CC(C)(CO)[C@@H](O)C(=O)NCCC(=O)[O-].[Ca+2] [D-Pantothenic acid (hemicalcium salt)]	48%	1	–	–
C=C[C@]1(C)CC[C@@H](C(=C)C)C[C@H]1C(=C)C [β-Elemene]	9% and 7%	–	–	–
Milbemycin [reference compound]	–	–	100 ± 0	86 ± 14
COc1cc([C@@H]2Oc3c(O)cc([C@H]4Oc5cc(O)cc(O)c5C(=O)[C@@H]4O)cc3[C@H]2CO)ccc1O [Silychristin]	33%	2	–	–
CC(=O)O[C@H]1CC[C@]2(C)[C@H]3CC=C4[C@@H]5[C@@H](C)[C@H](C)CC[C@]5(C(=O)O)CC[C@@]4(C)[C@]3(C)CC[C@H]2C1(C)C [Ursolic acid acetate]	24%	18	–	–
NC(=O)[C@@H]1CC[C@@H]2CN1C(=O)N2OS(=O)(=O)[O-].[Na+] [Avibactam (sodium)]	0%	8	–	–
C[C@@H]1O[C@@H](O[C@@H]2[C@@H](O)[C@H](O[C@H]3CC[C@]4(C)[C@H]5CC=C6[C@@H]7CC(C)(C)CC[C@]7(C(=O)O[C@@H]7O[C@H](CO)[C@@H](O)[C@H](O)[C@H]7O)CC[C@@]6(C)[C@]5(C)CC[C@H]4C3(C)C)O[C@H](C(=O)O)[C@H]2O)[C@H](O)[C@H](O)[C@H]1O	6%	0	–	–
CC1(C)CC[C@@]2(CO)C(=C3C=C[C@@H]4[C@@]5(C)CC[C@H](O)[C@@](C)(CO)[C@@H]5CC[C@@]4(C)[C@]3(C)C[C@H]2O)C1 [Saikogenin D]	27%	14	–	–
COc1cc2c(cc1OC)-c1cc3ccc(OC)c(OC)c3c[n+]1CC2.[Cl-] [Palmatine (chloride)]	–	0	–	–
Cc1ncccc1O [3‐Hydroxy‐2‐methylpyridine]	15%	0	–	–
C[C@@H]1O[C@@H](O[C@H]2[C@H](O)[C@@H](O)[C@H](OC[C@H]3O[C@@H](OC(=O)[C@]45CCC(C)(C)C[C@H]4C4=CC[C@@H]6[C@@]7(C)CC[C@H](O[C@@H]8OC[C@H](O)[C@H](O)[C@H]8O)[C@@](C)(CO)[C@@H]7CC[C@@]6(C)[C@]4(C)CC5)[C@H](O)[C@@H](O)[C@@H]3O)O[C@@H]2CO)[C@H](O)[C@H](O)[C@H]1O [Hederacoside D]	2%	2	–	–
C[C@@H]1NC(=O)N[C@@H]1CCCCCC(=O)O [D‐Desthiobiotin]	18%	4	–	–

Compound	Percentage of motility inhibition 0 h	Percentage of motility inhibition 24 h [%]	Inhibition (%) 110 μM (0 h) [%]	Inhibition (%) 110 μM (24 h) [%]
C=C1CC23CC4[C@@H]5[C@@]6(C)C[C@H](OC(C)=O)C[C@]57C(N4C6)[C@@]2(O)C(OC(C)=O)[C@H]1[C@@H](O)[C@H]37 (stereo partly shown) [Guanfu base A]	0%	0	–	–
Liensinine (Diperchlorate)	0%	0	–	–
CN[C@@H]1[C@@H](O[C@H]2O[C@H](CO)[C@@H](N)[C@H](O)[C@H]2O)OC2C[C@@H](N)[C@@H](O[C@H]3[C@H](O)[C@@H](O)[C@H](N)C[C@@H]3N)OC2[C@@H]1O (stereo partly shown) [Apramycin (sulfate)]	29%	2	–	–
Cl.O=C(c1ccc(OCCN2CCCCC2)cc1)c1c(-c2ccc(O)cc2)sc2cc(O)ccc12 [Raloxifene (hydrochloride)]	32%	0	–	–
CC[C@H]1OC(=O)C[C@@H](O)[C@H](C)[C@@H](O[C@@H]2O[C@H](C)[C@@H](O[C@H]3C[C@@](C)(O)[C@@H](O)[C@H](C)O3)[C@H](N(C)C)[C@H]2O)[C@@H](CC=O)C[C@@H](C)C(=O)/C=C/C(C)=C/[C@@H]1CO[C@@H]1O[C@H](C)[C@@H](O)[C@@H](OC)[C@H]1OC.O=C(O)C(O)C(O)C(=O)O [Tylosin (tartr ate)]	0%	1	–	–
CC(C)=CCC[C@](C)(O[C@@H]1O[C@H](CO[C@@H]2O[C@H](CO)[C@@H](O)[C@H](O)[C@H]2O)[C@@H](O)[C@H](O)[C@H]1O)[C@H]1CC[C@]2(C)[C@@H]1[C@H](O)C[C@@H]1[C@@]3(C)CC[C@H](O[C@@H]4O[C@H](CO)[C@@H](O)[C@H](O)[C@H]4O[C@@H]4O[C@H](CO)[C@@H](O)[C@H](O)[C@H]4O[C@@H]4OC[C@@H](O)[C@H](O)[C@H]4O)C(C)(C)[C@@H]3CC[C@]12C [Notoginsenoside Fa]	7%	33	–	–
COC(=O)c1ccc(O)cn1 [Methyl 5‐hydroxypyridine‐2‐carboxylate]	7%	1	–	–
CC(C)(O)CCc1c(O)cc(O)c2c(=O)c(O)c(-c3ccc(O)cc3)oc12 [Noricaritin]	42%	5	–	–
O=C(O)C1=CO[C@@H](O[C@@H]2O[C@H](CO)[C@@H](O)[C@H](O)[C@H]2O)[C@@H]2C(CO)=C[C@H](O)[C@H]12 [Deacetylasperulosidic Acid]	0%	8	–	–
O=C1CC[C@H](NC(=O)Cc2ccccc2)C(=O)N1 [Antineoplaston A10]	0%	0	–	–
c1cc2c(c3c1C[C@H]1c4cc5c(cc4CCN1C3)OCO5)OCO2 (racemic) [(±)‐Stylopine]	0%	31	–	–
C[C@@H]1C[C@@H]([C@@H](O)C(C)(C)O)O[C@H]2C[C@@]3(C)C(=C12)C[C@H](O)[C@H]1[C@@]2(C)CCC(=O)C(C)(C)[C@@H]2CC[C@@]13C [Alisol F]	0%	11	–	–
C=C(C(=O)O)[C@@H]1CC[C@@H](C)[C@@H]2CCC(C)=C[C@@H]21 [Artemisic acid]	1%	14	–	–
C[C@@H]1O[C@H]2O[C@H]3[C@@H](OC[C@H](O)[C@@H]3O)OC(=O)[C@]34CCC(C)(C)C[C@H]3C3=CC[C@@H]5[C@@]6(C)C[C@H](O)[C@H](O[C@@H]7O[C@H](CO)[C@@H](O)[C@H](O)[C@H]7O[C@@H]7O[C@@H](COC(=O)C[C@](C)(O)CC(=O)O[C@@H]1[C@@H](O[C@@H]1OC[C@@H](O)[C@H](O)[C@H]1O)[C@H]2O)[C@H](O)[C@@H](O)[C@@H]7O)[C@@](C)(CO)[C@@H]6CC[C@@]5(C)[C@]3(C)C[C@H]4O [Tubeimoside III]	0%	36	–	–
O.O=C([O-])CC(O)(CC(=O)[O-])C(=O)[O-].[K+].[K+].[K+] [Citric acid (tripotassium hydrate)]	28%	4	–	–
CC(C)=CCC[C@@](C)(O)[C@H]1CC[C@]2(C)[C@@H]1[C@H](O)C[C@@H]1[C@@]3(C)CC[C@H](O[C@@H]4O[C@H](CO)[C@@H](O)[C@H](O)[C@H]4O[C@@H]4O[C@H](CO)[C@@H](O)[C@H](O)[C@H]4O[C@@H]4OC[C@@H](O)[C@H](O)[C@H]4O)C(C)(C)[C@@H]3CC[C@]12C [Notoginsenoside Ft1]	14%	3	–	–
O=C1CCCC2C3CCC[N+]4([O-])CCCC(CN12)C34 (stereo not shown) [Oxysophoridine]	18%	9	–	–
O=C1O[C@H]([C@@H](O)CO)C([O-])=C1O.[Na+] [L-Ascorbic acid (sodium salt)]	6%	3	–	–
